Tests used:
Format in all cases: in vivo
corn (Zea mays) [1] = experiment: Test G Post-Emergence Protocol; conditions: Zea mays, post-emergence, 312 h; for plant injury at 15.625 g/ha: 15.625 g ai/ha, evaluated after 13 days (100=total damage to plant; 0=no damage to plant), read-out: Corn damage rating; for plant injury at 62.5 g/ha: 62.5 g ai/ha, read-out: Corn damage rating (100=total damage to plant; 0=no damage to plant); for plant injury at 62.5 g/ha / plant injury at 250 g/ha: evaluated after 13 days; for plant injury at 250 g/ha: 250 g ai/ha, read-out: damage to plant, Corn (100=total damage to plant; 0=no damage to plant)
Outline: (§1)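 Pot-grown seedlings, 8 days old, raised in a glasshouse at 24/16 °C day/night with 14 h light and 65% humidity, were sprayed post-emergence with test compound in acetone/water (50:50) plus 0.5% Tween 20 at 15.625, 62.5 or 250 g/ha. Damage was scored visually 13 days later on a 0–100 scale (100 = total damage).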

[2] = test system: redroot pigweed (Amaranthus retroflexus); experiment: Test G Post-Emergence Protocol; conditions: Amaranthus retroflexus, post-emergence, 312 h; for pest or weed control at 15.625 g/ha: 15.625 g ai/ha, evaluated after 13 days (100=total damage to plant; 0=no damage to plant), read-out: Pigweed, Redroot damage rating; for pest or weed control at 62.5 g/ha: 62.5 g ai/ha, read-out: Pigweed, Redroot damage rating (100=total damage to plant; 0=no damage to plant); for pest or weed control at 62.5 g/ha / pest or weed control at 250 g/ha: evaluated after 13 days; for pest or weed control at 250 g/ha: 250 g ai/ha, read-out: damage to plant, Pigweed, Redroot (100=total damage to plant; 0=no damage to plant)
Outline: as §1

[3] = test system: barnyardgrass (Echinochloa crus-galli); experiment: Test G Post-Emergence Protocol; conditions: Echinochloa crus-galli, post-emergence, 312 h; for pest or weed control at 15.625 g/ha: 15.625 g ai/ha, evaluated after 13 days (100=total damage to plant; 0=no damage to plant), read-out: Barnyardgrass damage rating; for pest or weed control at 62.5 g/ha: 62.5 g ai/ha, read-out: Barnyardgrass damage rating (100=total damage to plant; 0=no damage to plant); for pest or weed control at 62.5 g/ha / pest or weed control at 250 g/ha: evaluated after 13 days; for pest or weed control at 250 g/ha: 250 g ai/ha, read-out: damage to plant, Barnyardgrass (100=total damage to plant; 0=no damage to plant)
Outline: as §1

[4] = test system: ivy-leaved morning glory (Ipomoea hederacea); experiment: Test G Post-Emergence Protocol; conditions: Ipomoea, post-emergence, 312 h; for pest or weed control at 15.625 g/ha: 15.625 g ai/ha, evaluated after 13 days (100=total damage to plant; 0=no damage to plant), read-out: Morningglory, Ivy-leaved damage rating; for pest or weed control at 62.5 g/ha: 62.5 g ai/ha, read-out: Morningglory, Ivy-leaved damage rating (100=total damage to plant; 0=no damage to plant); for pest or weed control at 62.5 g/ha / pest or weed control at 250 g/ha: evaluated after 13 days; for pest or weed control at 250 g/ha: 250 g ai/ha, read-out: damage to plant, Morningglory, Ivy-leaved (100=total damage to plant; 0=no damage to plant)
Outline: as §1

[5] = test system: giant foxtail (Setaria faberi); experiment: Test G Post-Emergence Protocol; conditions: Setaria faberi, post-emergence, 312 h; for pest or weed control at 15.625 g/ha: 15.625 g ai/ha, evaluated after 13 days (100=total damage to plant; 0=no damage to plant), read-out: Foxtail, Giant damage rating; for pest or weed control at 62.5 g/ha: 62.5 g ai/ha, read-out: Foxtail, Giant damage rating (100=total damage to plant; 0=no damage to plant); for pest or weed control at 62.5 g/ha / pest or weed control at 250 g/ha: evaluated after 13 days; for pest or weed control at 250 g/ha: 250 g ai/ha, read-out: damage to plant, Foxtail, Giant (100=total damage to plant; 0=no damage to plant)
Outline: as §1

[6] = test system: velvetleaf (Abutilon theophrasti); experiment: Test G Post-Emergence Protocol; conditions: Abutilon theophrasti, post-emergence, 312 h; for pest or weed control at 15.625 g/ha: 15.625 g ai/ha, evaluated after 13 days (100=total damage to plant; 0=no damage to plant), read-out: Velvetleaf damage rating; for pest or weed control at 62.5 g/ha: 62.5 g ai/ha, read-out: Velvetleaf damage rating (100=total damage to plant; 0=no damage to plant); for pest or weed control at 62.5 g/ha / pest or weed control at 250 g/ha: evaluated after 13 days; for pest or weed control at 250 g/ha: 250 g ai/ha, read-out: damage to plant, Velvetleaf (100=total damage to plant; 0=no damage to plant)
Outline: as §1

corn (Zea mays) [7] = experiment: Test G Pre-Emergence Protocol; conditions: Zea mays, pre-emergence, 312 h, evaluated after 13 days; for plant injury at 15.625 g/ha: 15.625 g ai/ha; for plant injury at 15.625 g/ha / plant injury at 250 g/ha: read-out: Corn damage rating (100=total damage to plant; 0=no damage to plant); for plant injury at 62.5 g/ha: 62.5 g ai/ha, 100=total damage to plant, 0=no damage to plant, read-out: plant damage rating, Corn; for plant injury at 250 g/ha: 250 g ai/ha
Outline: (§2)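 Spraying took place one day after sowing, at 15.625, 62.5 or 250 g/ha, using an acetone/water (50:50) spray solution containing 0.5% Tween 20. Plants were kept under glasshouse conditions (24/16 °C, 14 h light, 65% humidity, watered twice daily), and injury was rated 0–100 at day 13.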

[8] = test system: redroot pigweed (Amaranthus retroflexus); experiment: Test G Pre-Emergence Protocol; conditions: Amaranthus retroflexus, pre-emergence, 312 h, evaluated after 13 days; for pest or weed control at 15.625 g/ha: 15.625 g ai/ha; for pest or weed control at 15.625 g/ha / pest or weed control at 250 g/ha: read-out: Pigweed, Redroot damage rating (100=total damage to plant; 0=no damage to plant); for pest or weed control at 62.5 g/ha: 62.5 g ai/ha, 100=total damage to plant, 0=no damage to plant, read-out: plant damage rating, Pigweed, Redroot; for pest or weed control at 250 g/ha: 250 g ai/ha
Outline: as §2

[9] = test system: barnyardgrass (Echinochloa crus-galli); experiment: Test G Pre-Emergence Protocol; conditions: Echinochloa crus-galli, pre-emergence, 312 h, evaluated after 13 days; for pest or weed control at 15.625 g/ha: 15.625 g ai/ha, read-out: Barnyard grass damage rating (100=total damage to plant; 0=no damage to plant); for pest or weed control at 62.5 g/ha: 62.5 g ai/ha, 100=total damage to plant, 0=no damage to plant, read-out: plant damage rating, Barnyardgrass; for pest or weed control at 250 g/ha: 250 g ai/ha, read-out: Barnyardgrass damage rating (100=total damage to plant; 0=no damage to plant)
Outline: as §2

[10] = test system: ivy-leaved morning glory (Ipomoea hederacea); experiment: Test G Pre-Emergence Protocol; conditions: Ipomoea, pre-emergence, 312 h, evaluated after 13 days; for pest or weed control at 15.625 g/ha: 15.625 g ai/ha, read-out: Morning-glory, Ivy-leaved damage rating (100=total damage to plant; 0=no damage to plant); for pest or weed control at 62.5 g/ha: 62.5 g ai/ha, 100=total damage to plant, 0=no damage to plant, read-out: plant damage rating, Morningglory, Ivy-leaved; for pest or weed control at 250 g/ha: 250 g ai/ha, read-out: Morningglory, Ivy-leaved damage rating (100=total damage to plant; 0=no damage to plant)
Outline: as §2

[11] = test system: giant foxtail (Setaria faberi); experiment: Test G Pre-Emergence Protocol; conditions: Setaria faberi, pre-emergence, 312 h, evaluated after 13 days; for pest or weed control at 15.625 g/ha: 15.625 g ai/ha; for pest or weed control at 15.625 g/ha / pest or weed control at 250 g/ha: read-out: Foxtail, Giant damage rating (100=total damage to plant; 0=no damage to plant); for pest or weed control at 62.5 g/ha: 62.5 g ai/ha, 100=total damage to plant, 0=no damage to plant, read-out: plant damage rating, Foxtail, Giant; for pest or weed control at 250 g/ha: 250 g ai/ha
Outline: as §2

[12] = test system: velvetleaf (Abutilon theophrasti); experiment: Test G Pre-Emergence Protocol; conditions: Abutilon theophrasti, pre-emergence, 312 h, evaluated after 13 days; for pest or weed control at 15.625 g/ha: 15.625 g ai/ha; for pest or weed control at 15.625 g/ha / pest or weed control at 250 g/ha: read-out: Velvetleaf damage rating (100=total damage to plant; 0=no damage to plant); for pest or weed control at 62.5 g/ha: 62.5 g ai/ha, 100=total damage to plant, 0=no damage to plant, read-out: plant damage rating, Velvetleaf; for pest or weed control at 250 g/ha: 250 g ai/ha
Outline: as §2

| Compound | plant injury at 15.625 g/ha (corn (Zea mays) [1]) [%] | plant injury at 62.5 g/ha (corn (Zea mays) [1]) [%] | plant injury at 250 g/ha (corn (Zea mays) [1]) [%] | pest or weed control at 15.625 g/ha [2] [%] | pest or weed control at 62.5 g/ha [2] [%] | pest or weed control at 250 g/ha [2] [%] | pest or weed control at 15.625 g/ha [3] [%] | pest or weed control at 62.5 g/ha [3] [%] | pest or weed control at 250 g/ha [3] [%] | pest or weed control at 15.625 g/ha [4] [%] | pest or weed control at 62.5 g/ha [4] [%] | pest or weed control at 250 g/ha [4] [%] | pest or weed control at 15.625 g/ha [5] [%] | pest or weed control at 62.5 g/ha [5] [%] | pest or weed control at 250 g/ha [5] [%] | pest or weed control at 15.625 g/ha [6] [%] | pest or weed control at 62.5 g/ha [6] [%] | pest or weed control at 250 g/ha [6] [%] | plant injury at 15.625 g/ha (corn (Zea mays) [7]) [%] | plant injury at 62.5 g/ha (corn (Zea mays) [7]) [%] | other results |
| --- | --- | --- | --- | --- | --- | --- | --- | --- | --- | --- | --- | --- | --- | --- | --- | --- | --- | --- | --- | --- | --- |
| Cc1c(Cl)ncnc1NC(=O)[C@@H]1C(=O)N(C)C[C@H]1c1ccc(C(F)(F)F)cc1 (racemic) [Compound 1581] | 0 | 0 | 0 | 0 | 0 | 0 | 0 | 0 | 10 | 0 | 0 | 0 | 0 | 0 | 0 | 0 | 0 | 0 | 0 | 0 | plant injury at 250 g/ha (corn (Zea mays) [7]): 0%; pest or weed control at 15.625 g/ha [8]: 0%; pest or weed control at 62.5 g/ha [8]: 0%; pest or weed control at 250 g/ha [8]: 0%; pest or weed control at 15.625 g/ha [9]: 0%; pest or weed control at 62.5 g/ha [9]: 0%; pest or weed control at 250 g/ha [9]: 0%; pest or weed control at 15.625 g/ha [10]: 0%; pest or weed control at 62.5 g/ha [10]: 0%; pest or weed control at 250 g/ha [10]: 0%; pest or weed control at 15.625 g/ha [11]: 0%; pest or weed control at 62.5 g/ha [11]: 0%; pest or weed control at 250 g/ha [11]: 0%; pest or weed control at 15.625 g/ha [12]: 0%; pest or weed control at 62.5 g/ha [12]: 0%; pest or weed control at 250 g/ha [12]: 0% |
| CN1C[C@@H](c2ccc(C(F)(F)F)nc2)[C@H](C(=O)Nc2ccccc2S(C)(=O)=O)C1=O (racemic) [Compound 1586] | 0 | 0 | 30 | 0 | 0 | 40 | 0 | 0 | 50 | 0 | 0 | 40 | 0 | 0 | 70 | 0 | 10 | 10 | 0 | 10 | plant injury at 250 g/ha (corn (Zea mays) [7]): 30%; pest or weed control at 15.625 g/ha [8]: 0%; pest or weed control at 62.5 g/ha [8]: 40%; pest or weed control at 250 g/ha [8]: 60%; pest or weed control at 15.625 g/ha [9]: 0%; pest or weed control at 62.5 g/ha [9]: 0%; pest or weed control at 250 g/ha [9]: 90%; pest or weed control at 15.625 g/ha [10]: 0%; pest or weed control at 62.5 g/ha [10]: 0%; pest or weed control at 250 g/ha [10]: 10%; pest or weed control at 15.625 g/ha [11]: 0%; pest or weed control at 62.5 g/ha [11]: 20%; pest or weed control at 250 g/ha [11]: 70%; pest or weed control at 15.625 g/ha [12]: 0%; pest or weed control at 62.5 g/ha [12]: 0%; pest or weed control at 250 g/ha [12]: 30% |
| Cc1ccc(NC(=O)[C@@H]2C(=O)N(C)C[C@H]2c2ccc(C(F)(F)F)cc2)c(Cl)c1 (racemic) [Compound 1590] | 0 | 0 | 0 | 0 | 0 | 0 | 0 | 0 | 30 | 0 | 20 | 30 | 0 | 70 | 80 | 0 | 0 | 0 | 0 | 0 | plant injury at 250 g/ha (corn (Zea mays) [7]): 0%; pest or weed control at 15.625 g/ha [8]: 0%; pest or weed control at 62.5 g/ha [8]: 0%; pest or weed control at 250 g/ha [8]: 0%; pest or weed control at 15.625 g/ha [9]: 0%; pest or weed control at 62.5 g/ha [9]: 0%; pest or weed control at 250 g/ha [9]: 60%; pest or weed control at 15.625 g/ha [10]: 0%; pest or weed control at 62.5 g/ha [10]: 0%; pest or weed control at 250 g/ha [10]: 0%; pest or weed control at 15.625 g/ha [11]: 0%; pest or weed control at 62.5 g/ha [11]: 50%; pest or weed control at 250 g/ha [11]: 80%; pest or weed control at 15.625 g/ha [12]: 0%; pest or weed control at 62.5 g/ha [12]: 0%; pest or weed control at 250 g/ha [12]: 0% |

Reference: US12077503B2, “Substituted cyclic amides and their use as herbicides” (FMC CORPORATION, priority 2015, dated 2024)
